Results: paper PMC3523469 (Investigational New Drugs, 2012)
Read-outs that look alike come from different tables or passages of the source.

Type: in vivo, Japanese patients
[1] = across all dose levels, 13 patients

## COc1cc2ncnc(Nc3ccc(F)c(Cl)c3)c2cc1NC(=O)/C=C/CN1CCCCC1 [dacomitinib, Dacomitinib]
45 mg QD (n = 7), G3
  Alanine aminotransferase increased, number of patients with treatment-related AE: 1
  Aspartate aminotransferase increased, number of patients with treatment-related AE: 1
  Blood bilirubin increased, number of patients with treatment-related AE: 1
  Cheilitis, number of patients with treatment-related AE: 0
  Conjunctivitis, number of patients with treatment-related AE: 0
  Decreased appetite, number of patients with treatment-related AE: 1
  Diarrhea, number of patients with treatment-related AE: 0
  Dry skin, number of patients with treatment-related AE: 0
  ECG QT prolonged, number of patients with treatment-related AE: 0
  Edema, number of patients with treatment-related AE: 0
  Fatigue, number of patients with treatment-related AE: 0
  Hematuria, number of patients with treatment-related AE: 0
  Hypertrichosis, number of patients with treatment-related AE: 0
  Leukopenia, number of patients with treatment-related AE: 0
  Nausea, number of patients with treatment-related AE: 0
  Palmar–plantar erythrodysesthesia, number of patients with treatment-related AE: 0
  Paronychia, number of patients with treatment-related AE: 0
  Proteinuria, number of patients with treatment-related AE: 0
  Rash, number of patients with treatment-related AE: 2
  Skin fissures, number of patients with treatment-related AE: 0
  Stomatitis, number of patients with treatment-related AE: 0
  Weight decreased, number of patients with treatment-related AE: 0
45 mg dosing cohort
  device-related infection, treatment-related grade 3 AE, number: 1
  treatment-related grade 3 AEs, number: seven
15, 30, 45 mg QD, single dose to day 21 of cycle 1, 12 patients evaluated
  Dose-limiting toxicity (DLT): no DLTs observed at any dose
Japanese patients with advanced solid tumors
  clinically recommended phase II dose (RP2D): 45 mg QD
Total (N = 13)
  Alanine aminotransferase increased, % of patients with treatment-related AE: 15%
  Alanine aminotransferase increased, number of patients with treatment-related AE: 2
  Aspartate aminotransferase increased, % of patients with treatment-related AE: 15%
  Aspartate aminotransferase increased, number of patients with treatment-related AE: 2
  Blood bilirubin increased, % of patients with treatment-related AE: 15%
  Blood bilirubin increased, number of patients with treatment-related AE: 2
  Cheilitis, % of patients with treatment-related AE: 38%
  Cheilitis, number of patients with treatment-related AE: 5
  Conjunctivitis, % of patients with treatment-related AE: 31%
  Conjunctivitis, number of patients with treatment-related AE: 4
  Decreased appetite, % of patients with treatment-related AE: 23%
  Decreased appetite, number of patients with treatment-related AE: 3
  Diarrhea, % of patients with treatment-related AE: 92%
  Diarrhea, number of patients with treatment-related AE: 12
  Dry skin, % of patients with treatment-related AE: 61.5%
  Dry skin, number of patients with treatment-related AE: 8
  ECG QT prolonged, % of patients with treatment-related AE: 15%
  ECG QT prolonged, number of patients with treatment-related AE: 2
  Edema, % of patients with treatment-related AE: 15%
  Edema, number of patients with treatment-related AE: 2
  Fatigue, % of patients with treatment-related AE: 46%
  Fatigue, number of patients with treatment-related AE: 6
  Hematuria, % of patients with treatment-related AE: 15%
  Hematuria, number of patients with treatment-related AE: 2
  Hypertrichosis, % of patients with treatment-related AE: 15%
  Hypertrichosis, number of patients with treatment-related AE: 2
  Leukopenia, % of patients with treatment-related AE: 23%
  Leukopenia, number of patients with treatment-related AE: 3
  Nausea, % of patients with treatment-related AE: 23%
  Nausea, number of patients with treatment-related AE: 3
  Palmar–plantar erythrodysesthesia, % of patients with treatment-related AE: 38%
  Palmar–plantar erythrodysesthesia, number of patients with treatment-related AE: 5
  Paronychia, % of patients with treatment-related AE: 69%
  Paronychia, number of patients with treatment-related AE: 9
  Proteinuria, % of patients with treatment-related AE: 23%
  Proteinuria, number of patients with treatment-related AE: 3
  Rash, % of patients with treatment-related AE: 100%
  Rash, number of patients with treatment-related AE: 13
  Skin fissures, % of patients with treatment-related AE: 15%
  Skin fissures, number of patients with treatment-related AE: 2
  Stomatitis, % of patients with treatment-related AE: 61.5%
  Stomatitis, number of patients with treatment-related AE: 8
  Weight decreased, % of patients with treatment-related AE: 23%
  Weight decreased, number of patients with treatment-related AE: 3
[1]
  diarrhea, all-causality AE, number of patients: 12
  dry skin, all-causality AE, number of patients: 8
  paronychia, all-causality AE, number of patients: 9
  rash, all-causality AE, number of patients: 13
  stomatitis, all-causality AE, number of patients: 8
All cohorts, all cycles
  grade 4 or 5 treatment-related adverse events: ^aThere were no grade 4 or 5 treatment-related adverse events
All dose levels
  grade 4 AEs: No grade 4 AEs were reported
All in the 45 mg dosing cohort
  patients requiring temporary discontinuations due to TRAEs, number: five
One patient, 15 mg cohort, day 1 cycle 1, grade 1
  prolonged QTcF interval, change from baseline: 26 ms
overall
  treatment-related grade 3 AEs, number: eight
single-dose administration phase
  AEs observed in ≥1 patient during the single-dose administration phase: rash and diarrhea
